From patent publication US8354443B2, “Cyclopropane indolinone derivatives” (Hoffmann-La Roche Inc., priority 2009, dated 2013)

The compounds below were run on recombinant AMPK proteins (α1β1γ1, α2β1γ1, α1(1-335), α1(1-394) or α2(1-394)) (assay: Scintillation Proximity Assay (AMPK activation)). Conditions: effective concentration of activator for 50% of maximal enzyme activity; 2 hr at 30° C.; AMPK form not specified.
Format: biochemical, human
Description: Recombinant human AMPK α1β1γ1, α2β1γ1 or AMPK a subunit truncations α1 (1-335), α1 (1-394) and α2(1-394) were constructed, expressed and purified as described previously (Pang, T., Zhang, Z. S., Gu, M., Qiu, B. Y., Yu, L. F., Cao, P. R., Shao, W., Su, M. B., Li, J. Y., Nan, F. J., and Li, J. (2008) or purchased from Invitrogen (San Diego, Calif., U.S.A.). Rat liver AMPK heterotrimer enzyme was obtained from Upstate (Billerica, Mass., U.S.A.).
Before the Scintillation Proximity Assay (SPA) assay, 200 nM recombinant AMPK proteins (α1β1γ1, α2β1γ1, α1(1-335), α1(1-394) or α2(1-394)) were fully phosphorylated as described previously (Pang et al., 2008). SPA reactions were performed in 96-well plates at a final volume of 50 μl containing 20 mM Tris-HCl pH 7.5, 5 mM MgCl2, 1 mM DTT, 2 μM biotin-SAMS, 2 μM ATP, 0.2 μCi/well [γ-^33P]ATP, and various amount of activator. Reactions were initiated by the addition of 50 nM recombinant AMPK proteins to the reaction solutions and incubated at 30° C. for 2 hr. After that, reactions were terminated by the addition of 40 μl stop solution containing 80 μg streptavidin-coated SPA beads per well, 50 mM EDTA, 0.1% Triton X-100 in PBS, pH 7.5 and incubated for 1 hr. Finally, a 160 μl suspension solution containing 2.4 M CsCl, 50 mM EDTA, and 0.1% Triton X-100 in PBS (pH 7.5) was added to the reaction solution to suspend SPA beads completely. SPA signals were determined with a Wallac MicroBeta plate counter (PerkinElmer) 30 min later for calculation of the amount of product formed. The amount of products formed in 2 hr was plotted against activator concentrations to determine the effective concentration of the activator (EC50) required for 50% of maximal enzyme activity.

Compound | EC50
O=C(c1cccc(CN2C(=O)[C@]3(C[C@@H]3c3ccc(Cl)cc3)c3ccccc32)c1)N1CCCCC1 (racemic) [Example 60, (1S,2R) and (1R,2S)-2-(4-chlorophenyl)-1′-(3-(piperidine-1-carbonyl)benzyl) Spiro[cyclopropane-1,3′-indolin]-2′-one] | 3500 nM
Cc1cc(NC(=O)c2cccc(CN3C(=O)[C@@]4(C[C@H]4c4ccc(Cl)cc4)c4ccccc43)c2)[nH]n1 (racemic) [Example 67, (1R,2S) and (1S,2R)-3-((2-(4-chlorophenyl)-2′-oxospiro[cyclopropane-1,3′-indoline]-1′-yl)methyl)-N-(3-methyl-1 H-pyrazol-5-yl)benzamide] | 2290 nM
O=C(O)c1cccc(CN2C(=O)[C@]3(C[C@@H]3c3ccc(Cl)cc3)c3ccccc32)n1 (racemic) [Example 68, (1S,2R) and (1R,2S)-6-((2-(4-chlorophenyl)-2′-oxospiro[cyclopropane-1,3′-indoline]-1′-yl)methyl)picolinic acid] | 2800 nM
O=C1N(CC2CCOCC2)c2ccccc2[C@@]12C[C@@H]2c1ccc(Cl)cc1 (racemic) [Example 70, (1S,2R) and (1R,2S)-2-(4-chlorophenyl)-1′-((tetrahydro-2 H-pyran-4-yl)methyl)spiro[cyclopropane-1,3′-indolin]-2′-one] | 1540 nM
CCN(CC)CCN1C(=O)[C@]2(C[C@@H]2c2ccc(Cl)cc2)c2ccccc21 (racemic) [Example 71, (1S,2R) and (1R,2S)-2-(4-chlorophenyl)-1′-(2-(diethylamino)ethyl)spiro[cyclopropane-1,3′-indolin]-2′-one] | 3200 nM
O=C1N(CCN2CCOCC2)c2ccccc2[C@@]12C[C@@H]2c1ccc(Cl)cc1 (racemic) [Example 72, (1S,2R) and (1R,2S)-2-(4-chlorophenyl)-1′-(2-morpholinoethyl) spiro[cyclopropane-1,3′-indolin]-2′-one] | 4100 nM
CS(=O)(=O)N1CCC(CN2C(=O)[C@]3(C[C@@H]3c3ccc(Cl)cc3)c3ccccc32)CC1 (racemic) [Example 73, (1S,2R) and (1R,2S)-2-(4-chlorophenyl)-1′-((1-(methylsulfonyl)piperidin-4-yl)methyl) Spiro[cyclopropane-1,3′-indolin]-2′-one] | 1650 nM
CC(C)N1CCN(CCN2C(=O)[C@]3(C[C@@H]3c3ccc(Cl)cc3)c3ccccc32)CC1 (racemic) [Example 74, (1S,2R) and (1R,2S)-2-(4-chlorophenyl)-1′-(2-(4-isopropylpiperazin-1-yl)ethyl)spiro [cyclopropane-1,3′-indolin]-2′-one] | 8800 nM
CN(C)CCN1CCN(CCN2C(=O)[C@]3(C[C@@H]3c3ccc(Cl)cc3)c3ccccc32)CC1 (racemic) [Example 75, (1S,2R) and (1R,2S)-2-(4-chlorophenyl)-1′-(2-(4-(2-(dimethylamino)ethyl)piperazin-1-yl)ethyl) Spiro[cyclopropane-1,3′-indolin]-2′-one] | 5910 nM
O=C1N(Cc2ccncc2)c2ccccc2[C@]12C[C@H]2c1ccc(Cl)cc1 (racemic) [Example 78, (1R,2S) and (1S,2R)-2-(4-chlorophenyl)-1′-(pyridin-4-ylmethyl)spiro[cyclopropane-1,3′-indolin]-2′-one] | 4200 nM
O=C1N(Cc2cccnc2)c2ccccc2[C@@]12C[C@@H]2c1ccc(Cl)cc1 (racemic) [Example 79, (1S,2R) and (2R,1S)-2-(4-chlorophenyl)-1′-(pyridin-3-ylmethyl)spiro[cyclopropane-1,3′-indolin]-2′-one] | 2600 nM
O=C(O)Cn1cnc(N2C(=O)[C@]3(C[C@@H]3c3ccc(Cl)cc3)c3ccccc32)c1 (racemic) [Example 80, (1S,2R) and (1R,2S)-2-(4-(2-(4-chlorophenyl)-2′-oxospiro[cyclopropane-1,3′-indoline]-1′-yl)-1 H-imidazol-1-yl)acetic acid] | 1250 nM
O=C(O)c1cn(CCN2C(=O)[C@]3(C[C@@H]3c3ccc(Cl)cc3)c3ccccc32)cn1 (racemic) [Example 81, (1S,2R) and (1R,2S)-1-(2-(2-(4-chlorophenyl)-2′-oxospiro[cyclopropane-1,3′-indoline]-1′-yl)ethyl)-1H-imidazole-4-carboxylic acid] | 2220 nM
O=C(O)c1cn(CCN2C(=O)[C@]3(C[C@H]3c3ccc(Cl)cc3)c3ccccc32)cn1 (racemic) [Example 82, (1S,2S) and (1R,2R)-1-(2-(2-(4-chlorophenyl)-2′-oxospiro[cyclopropane-1,3′-indoline]-1′-yl)ethyl)-1H-imidazole-4-carboxylic acid] | 4030 nM
O=C(O)c1cccc(N2C(=O)[C@]3(C[C@@H]3c3ccc(Cl)cc3)c3ccccc32)c1 (racemic) [Example 83, (1S,2R) and (1R,2S)-3-(2-(4-chlorophenyl)-2′-oxospiro[cyclopropane-1,3′-indoline]-1′-yl)benzoic acid] | 2590 nM
O=C(O)c1cccc(N2C(=O)[C@]3(C[C@H]3c3ccc(Cl)cc3)c3ccccc32)c1 (racemic) [Example 84, (1S,2S) and (1R,2R)-3-(−2-(4-chlorophenyl)-2′-oxospiro[cyclopropane-1,3′-indoline]-1′-yl)benzoic acid] | 2980 nM
CS(=O)(=O)N1CCN(C(=O)c2cccc(N3C(=O)[C@]4(C[C@H]4c4ccc(Cl)cc4)c4ccccc43)c2)CC1 (racemic) [Example 87, (1S,2S) and (1R,2R)-2-(4-chlorophenyl)-1′-(3-(4-(methylsulfonyl)piperazine-1-carbonyl)phenyl)spiro[cyclopropane-1,3′-indolin]-2′-one] | 6730 nM

The next lines start with the values.

EC50 | Compound
1790 nM | O=C(O)c1cccc(CN2C(=O)[C@]3(C[C@H]3c3ccc(F)cc3)c3ccccc32)c1 (racemic) [Example 26, (1S,2S) and (1R,2R)-3-((-2-(4-fluorophenyl)-2′-oxospiro[cyclopropane-1,3′-indoline]-1′-yl)methyl)benzoic acid]
8670 nM | CC(C)NC(=O)c1cccc(CN2C(=O)[C@@]3(C[C@H]3c3ccc(Cl)cc3)c3ccccc32)c1 (racemic) [Example 61, (1R,2S) and (1S,2R)-3-((2-(4-chlorophenyl)-2′-oxospiro[cyclopropane-1,3′-indoline]-1′-yl)methyl)-N-isopropylbenzamide]
6570 nM | O=C(c1cccc(CN2C(=O)[C@]3(C[C@@H]3c3ccc(Cl)cc3)c3ccccc32)c1)N1CCNCC1 (racemic) [Example 62, (1S,2R) and (1R,2S)-2-(4-chlorophenyl)-1′-(3-(piperazine-1-carbonyl)benzyl)spiro[cyclopropane-1,3′-indolin]-2′-one]
1540 nM | O=C(c1cccc(CN2C(=O)[C@@]3(C[C@H]3c3ccc(Cl)cc3)c3ccccc32)c1)N1CCOCC1 (racemic) [Example 63, (1R,2S) and (1S,2R)-2-(4-chlorophenyl)-1′-(3-(morpholine-4-carbonyl)benzyl)spiro[cyclopropane-1,3′-indolin]-2′-one]
1600 nM | O=C(c1cccc(CN2C(=O)[C@@]3(C[C@H]3c3ccc(Cl)cc3)c3ccccc32)c1)N1CCN(c2ccncc2)CC1 (racemic) [Example 64, (1R,2S) and (1S,2R)-2-(4-chlorophenyl)-1′-(3-(4-(pyridin-4-yl)piperazine-1-carbonyl)benzyl)spiro[cyclopropane-1,3′-indolin]-2′-one]
1710 nM | CC(C)N1CCN(C(=O)c2cccc(CN3C(=O)[C@]4(C[C@@H]4c4ccc(Cl)cc4)c4ccccc43)c2)CC1 (racemic) [Example 65, (1S,2R) and (1R,2S)-2-(4-chlorophenyl)-1′-(3-(4-isopropylpiperazine-1-carbonyl)benzyl)spiro[cyclopropane-1,3′-indolin]-2′-one]
950 nM | O=C(c1cccc(N2C(=O)[C@]3(C[C@H]3c3ccc(Cl)cc3)c3ccccc32)c1)N1CCOCC1 (racemic) [Example 85, (1S,2S) and (1R,2R)-2-(4-chlorophenyl)-1′-(3-(morpholine-4-carbonyl)phenyl)spiro [cyclopropane-1,3′-indolin]-2′-one]
1730 nM | CN1CCN(C(=O)c2cccc(N3C(=O)[C@]4(C[C@H]4c4ccc(Cl)cc4)c4ccccc43)c2)CC1 (racemic) [Example 86, (1S,2S) and (1R,2R)-2-(4-chlorophenyl)-1′-(3-(4-methylpiperazine-1-carbonyl)phenyl) Spiro[cyclopropane-1,3′-indolin]-2′-one]
2560 nM | O=C(c1cccc(N2C(=O)[C@@]3(C[C@H]3c3ccc(Cl)cc3)c3ccccc32)c1)N1CCOCC1 (racemic) [Example 88, (1R,2S) and (1S,2R)-2-(4-chlorophenyl)-1′-(3-(morpholine-4-carbonyl)phenyl)spiro [cyclopropane-1,3′-indolin]-2′-one]
